Legend:
HDAC4 = molecular target: T1, HDAC4 (Homo sapiens, UniProt P56524); assay: HDAC4 fluorometric enzyme inhibition assay, purified recombinant enzyme, 10-point dose-response; format: biochemical; settings: Table 1; purified recombinant HDAC4 1 nM; mean of three independent experiments; >35 µM = weak inhibitor
T1 construct: made in house
Experimental: (§1) Therefore, the first stage of biological evaluation focused on determining inhibitory concentration (IC50) values of the squaric acid derivatives against HDAC8 and HDAC4 using purified recombinant enzymes. Enzymatic inhibition was quantified using 10‐point dose–response assays, from which IC50 values were calculated (Table 1). HDAC8 and HDAC4 were employed at concentrations of 10 nM and 1 nM, respectively, while other zinc‐dependent HDAC isoenzymes were used at approximate concentrations of ∼1 nM, reflecting the purity of the commercially available preparations. […]
(§2) 1.3.1 HDAC Assay General Inform ation
(§3) The activity of HDAC1, HDAC4, HDAC6, HDAC8, and HDAC11 was determined using a fluorometric assay in black half-area 96-well microplates (Greiner Bio -One , Germany). HDAC1 (#50051) and HDAC 6 (#50006) were purchased from BPS Bioscience.
(§4) HDAC4, HDAC8 and HDAC11 were produced in house as previously described.7- 9 The enzymes were pre-incubated with serial dilutions of the compounds for 1 hour at 30 °C in either assay buffer (25 mM Tris-HCl, 75 mM KCl and 0.001% (v/v) Pluronic F -127, pH 8.0) or MAL buffer (137 m M NaCl, 50 mM Tris-HCl, 2.7 mM KCl, 1 mM MgCl₂, 0 .5 mg/ml bovine serum albumin (BSA), pH 8.0b) for HDAC11. The enzyme reaction was initiated by the addition of the following substrates: 20 µM Boc-L ys(T FA) -AMC for HDAC4 and HDAC8; 80 µM Boc-L ys(T FA) -AMC for HDAC11; and 50 µM Boc -Lys(Ac)-AMC for HDAC1 and HDAC6. After an incubation period of 60 minutes, the reaction was terminated by the addition of 1.7 µM 9,9,9-trifluoro-8-oxo-N -phenyl -nonanamide (SATFMK) for […]
(§5) HDAC6, and 1 µM 1,1-dimethyl -2-[5-(trifluoromethyl)pyrazin-2-yl]isoindoline -4-carbohydroxamic acid (FT895) for HDAC11. The deacetylated substrate was then cleaved into fluorescent 7-amino -4- methylcoumarin (AMC) by the addition of 0.42 mg/mL trypsin.
(§6) Measurements were performed using a PHERAstar FS fluorescence microplate reader (BMG LABTECH) with excitation at 360 nm and emission at 460 nm. The normalised enzyme activities were plotted against the respective ligand concentration and fitted with a four-parameter logistic function using GraphPad Prism 6 software.

HDAC8 = molecular target: T2, HDAC8 (Homo sapiens, UniProt Q9BY41); assay: HDAC8 fluorometric enzyme inhibition assay, purified recombinant enzyme, 10-point dose-response; format: biochemical; settings: Table 1; purified recombinant HDAC8 10 nM; mean of three independent experiments; >35 µM = weak inhibitor
T2 construct: made in house
T2 sequence (Q9BY41 1-377): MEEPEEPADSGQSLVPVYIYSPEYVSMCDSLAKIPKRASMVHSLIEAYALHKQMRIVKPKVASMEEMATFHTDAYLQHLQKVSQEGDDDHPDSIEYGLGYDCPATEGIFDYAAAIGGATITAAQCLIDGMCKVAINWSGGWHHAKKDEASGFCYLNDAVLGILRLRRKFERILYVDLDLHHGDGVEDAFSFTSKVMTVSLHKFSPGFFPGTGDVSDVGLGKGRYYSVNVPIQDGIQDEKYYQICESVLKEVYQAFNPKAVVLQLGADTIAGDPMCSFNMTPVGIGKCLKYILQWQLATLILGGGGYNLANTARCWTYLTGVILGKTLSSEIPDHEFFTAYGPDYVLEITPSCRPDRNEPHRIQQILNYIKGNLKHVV
Experimental: as §1, §2, §3, §4, §5, §6

T1 sequence (P56524 whole entry): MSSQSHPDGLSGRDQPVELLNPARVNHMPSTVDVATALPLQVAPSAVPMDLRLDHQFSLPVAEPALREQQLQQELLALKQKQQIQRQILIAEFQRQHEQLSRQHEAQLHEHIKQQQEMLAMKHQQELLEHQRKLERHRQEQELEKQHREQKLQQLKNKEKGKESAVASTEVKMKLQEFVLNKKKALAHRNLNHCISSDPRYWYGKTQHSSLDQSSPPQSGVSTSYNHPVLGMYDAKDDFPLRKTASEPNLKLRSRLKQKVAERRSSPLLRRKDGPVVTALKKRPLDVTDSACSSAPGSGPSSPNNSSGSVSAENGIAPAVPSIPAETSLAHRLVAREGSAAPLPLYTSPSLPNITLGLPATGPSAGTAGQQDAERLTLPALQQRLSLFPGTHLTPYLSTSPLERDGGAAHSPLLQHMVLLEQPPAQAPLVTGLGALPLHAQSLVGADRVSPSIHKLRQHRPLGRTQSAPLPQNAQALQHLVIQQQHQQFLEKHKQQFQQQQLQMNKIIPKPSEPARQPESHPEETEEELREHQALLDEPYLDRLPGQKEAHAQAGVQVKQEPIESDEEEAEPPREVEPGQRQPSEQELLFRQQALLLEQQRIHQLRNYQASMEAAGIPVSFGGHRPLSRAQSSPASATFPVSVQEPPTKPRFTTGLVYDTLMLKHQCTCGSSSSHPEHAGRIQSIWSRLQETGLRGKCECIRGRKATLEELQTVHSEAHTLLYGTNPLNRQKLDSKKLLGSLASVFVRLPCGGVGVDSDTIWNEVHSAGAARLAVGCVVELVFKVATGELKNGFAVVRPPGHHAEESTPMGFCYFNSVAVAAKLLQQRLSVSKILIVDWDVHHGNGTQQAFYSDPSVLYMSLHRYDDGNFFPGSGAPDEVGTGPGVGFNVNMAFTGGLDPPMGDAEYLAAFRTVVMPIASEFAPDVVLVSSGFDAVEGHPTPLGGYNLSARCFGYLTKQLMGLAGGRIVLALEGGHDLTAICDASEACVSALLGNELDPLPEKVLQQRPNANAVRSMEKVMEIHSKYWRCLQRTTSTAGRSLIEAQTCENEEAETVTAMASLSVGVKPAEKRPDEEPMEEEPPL

SMILES	IC50 (HDAC4)	IC50 (HDAC8)
CCOc1c(Nc2ccccc2C)c(=O)c1=O [Compound 9o]	> 35 µM	> 35 µM
CCOc1c(N(C)Cc2ccc(Br)cc2)c(=O)c1=O [10 h]	> 35 µM	> 35 µM
CCOc1c(NCc2ccccc2Cl)c(=O)c1=O [Compound 10b]	> 35 µM	> 35 µM
O=c1c(N(Cc2ccccc2)c2ccc(Br)cc2)c(N(Cc2ccccc2)c2ccc(Br)cc2)c1=O [Compound 15]	> 35 µM	> 35 µM
CCOc1c(Nc2ccc(C(F)(F)F)cc2)c(=O)c1=O [Compound 9n]	> 35 µM	> 35 µM
CCOc1c(N(C(C)C)C(C)C)c(=O)c1=O [Compound 11]	> 35 µM	> 35 µM
CCOc1c(Nc2ccccc2O)c(=O)c1=O [Compound 9g]	> 35 µM	> 35 µM
CCOc1c(Nc2cccc(Br)c2)c(=O)c1=O [Compound 9e]	> 35 µM	> 35 µM
CCOc1c(Nc2cccc(Cl)c2)c(=O)c1=O [Compound 9c]	> 35 µM	> 35 µM
CCOc1c(NCc2ccc(Br)cc2)c(=O)c1=O [Compound 10g]	> 35 µM	> 35 µM
CCOc1c(NCc2cccc(Cl)c2)c(=O)c1=O [Compound 10c]	> 35 µM	> 35 µM
CCOc1c(Nc2ccc(OC)cc2)c(=O)c1=O [Compound 9l]	> 35 µM	> 35 µM
CCOc1c(Nc2cccc(OC)c2)c(=O)c1=O [Compound 9k]	> 35 µM	> 35 µM
CCOc1c(NCc2ccccc2)c(=O)c1=O [Compound 10a]	> 35 µM	> 35 µM
CCOc1c(Nc2ccccc2)c(=O)c1=O [Compound 9a]	> 35 µM	> 35 µM
CCOc1c(NCc2ccccc2Br)c(=O)c1=O [Compound 10e]	> 35 µM	> 35 µM
CCOc1c(NCc2ccc(Cl)cc2)c(=O)c1=O [Compound 10d]	> 35 µM	> 35 µM
CCOc1c(Nc2cccc(C(=O)O)c2)c(=O)c1=O [Compound 9r]	> 35 µM	> 35 µM
CCOc1c(Nc2ccccc2OC)c(=O)c1=O [Compound 9j]	> 35 µM	> 35 µM
CCOc1c(Nc2ccc(C)cc2)c(=O)c1=O [Compound 9q]	> 35 µM	> 35 µM
CCOc1c(N2CCS(=O)(=O)CC2)c(=O)c1=O [12 h]	> 35 µM	> 35 µM
CCOc1c(Nc2ccc(Br)cc2)c(=O)c1=O [Compound 9f]	> 35 µM	> 35 µM
CCOc1c(Nc2cccc(C(F)(F)F)c2)c(=O)c1=O [Compound 9m]	> 35 µM	> 35 µM
CCOc1c(Nc2ccc(O)cc2)c(=O)c1=O [Compound 9i]	> 35 µM	> 35 µM
CCOc1c(Nc2cccc(C)c2)c(=O)c1=O [Compound 9p]	> 35 µM	> 35 µM
CCOc1c(NCc2cccc(Br)c2)c(=O)c1=O [Compound 10f]	> 35 µM	> 35 µM
CCOc1c(Nc2ccc(Cl)cc2)c(=O)c1=O [Compound 9d]	> 35 µM	> 35 µM
CCOc1c(N(C)c2ccc(Br)cc2)c(=O)c1=O [Compound 9s]	> 35 µM	> 35 µM
CCOc1c(Nc2cccc(O)c2)c(=O)c1=O [9 h]	> 35 µM	> 35 µM

Next, values leading:

IC50 (HDAC4)	IC50 (HDAC8)	SMILES
> 35 µM	> 35 µM	CN1CCCN(C)c2c1c(=O)c2=O [Compound 17b]
> 35 µM	> 35 µM	CCOc1c(N2CCC2)c(=O)c1=O [Compound 12a]
> 35 µM	> 35 µM	CCOc1c(N2CCSC2)c(=O)c1=O [Compound 12i]
> 35 µM	> 35 µM	CC(C)N1CCN(C(C)C)c2c1c(=O)c2=O [Compound 17a]
> 35 µM	> 35 µM	O=c1c(N2CCCCC2)c(N2CCCCC2)c1=O [Compound 16b]
> 35 µM	> 35 µM	O=c1c(N2CCOCC2)c(N2CCOCC2)c1=O [Compound 16a]
> 35 µM	> 35 µM	CCOc1c(N2CCCCC2)c(=O)c1=O [Compound 12c]
14 ± 2 µM	> 35 µM	O=c1c(Nc2ccccc2)c(Nc2ccccc2)c1=O [Compound 13a]
> 35 µM	> 35 µM	CCOc1c(N2CCSCC2)c(=O)c1=O [Compound 12g]
> 35 µM	> 35 µM	CCOc1c(N2CCOCC2)c(=O)c1=O [Compound 12e]
> 35 µM	> 35 µM	CCOc1c(N2CCCc3ccc(Br)cc32)c(=O)c1=O [Compound 12k]
> 35 µM	> 35 µM	CCOc1c(N2CCN(C(=O)OC(C)(C)C)CC2)c(=O)c1=O [Compound 12j]
> 35 µM	> 35 µM	CN(c1ccc(Br)cc1)c1c(N(C)c2ccc(Br)cc2)c(=O)c1=O [Compound 14c]
> 35 µM	> 35 µM	CCOc1c(N2CCCC2)c(=O)c1=O [Compound 12b]
> 35 µM	> 35 µM	CCOc1c(N2CCCCCC2)c(=O)c1=O [Compound 12d]
> 35 µM	> 35 µM	CN(c1ccccc1)c1c(N(C)c2ccccc2)c(=O)c1=O [Compound 14a]
> 35 µM	> 35 µM	CCOc1c(N2C[C@@H](C)O[C@@H](C)C2)c(=O)c1=O [Compound 12f]
